Measured values reported in US20230137092A1, “Composition and Method for the Treatment and Prevention of Cardiac, Pulmonary, Dermal, and Renal Fibrosis” (EMERALD HEALTH PHARMACEUTICALS INC., priority 2020, published 2023).

What was measured:
NFAT = assay: Gal4-NFAT / Gal4-Luc reporter assay in hICF; format: cell-based, human; settings: hICF transfected with Gal4-Luc and Gal4-NFAT, stimulated 6 hours
Procedure: hICF cells were transiently transfected for 24 hours with the Gal4-Luc reporter plasmid (which includes five Gal4 DNA binding sites fused to the luciferase gene) and the Gal4-NFAT1-415plasmid for 24 hours using Roti-Fect (Carl Roth GmbH & Co. KG, Karlsruhe, Germany). Then cells were stimulated for 6 hours and luciferase activity in the cell lysates was measured. The specific transactivation expressed as a percentage of activation relative to control. Compound of Formula (VIII) inhibited Ang II-induced NFAT activation (FIG. 16B).

ERK1+2 = assay: Ang II-induced ERK1+2 phosphorylation in hICF, immunoblot; format: cell-based, human; settings: hICF preincubated with compound, Ang II for 30 minutes
Procedure: The effect of compound of Formula (VIII) on Ang II signaling pathways in hICF was investigated. ERK1+2 and NFAT activation are two pathways activated by Ang-II (Wakatsuki et al., 2004, Trends Biochem Sci, 29:609-617). hICF were preincubated with compound of Formula (VIII), treated with Ang II for 30 minutes, washed with PBS and proteins extracted in 50 μL of lysis buffer (50 mM Tris-HCl pH 7.5, 150 mM NaCl, 1% (v/v) NP-40, 10% (v/v) glycerol, 10 mM NaF, 1 mM Na3VO4, aprotinin (10 μg/ml), leupeptine (10 μg/ml), pepstatin (1 μg/ml) and 1 mM PMSF saturated). Separated proteins in 10% SDS/PAGE gels were transferred to PVDF membranes and blocked in TBS solution containing 0.1% Tween 20 and 5% bovine serum albumin (BSA) for 1 hour at room temperature. Immunodetection of specific proteins was carried out by incubation with primary antibodies against p-ERK (1:1000; #4695 Cell Signaling Technology) and ERK (1:1000, M5670, Sigma). Membranes were incubated with horseradish peroxidase-conjugated secondary antibody was added and proteins detected by chemiluminescence system (GE Healthcare Europe GmbH). Compound of Formula (VIII) inhibited Ang II-induced ERK1+2 phosphorylation (FIG. 16B).

In the case of `CCCCc1nc(Cl)c(CO)n1Cc1ccc(-c2ccccc2-c2nn[nH]n2)cc1` [Losartan, reference compound], the “Ang II-induced NFAT activation (luciferase)” value (NFAT) is reported as “inhibited” and the “Ang II-induced ERK1+2 phosphorylation” value (ERK1+2) is reported as “inhibited”.
